One compound from ChEMBL document CHEMBL3045820, “Discovery of a novel histone deacetylase 8 inhibitor by virtual screening” (Med Chem Res, 2012) can be followed below.

For the experiment, the target named is T1, Histone deacetylase 8 (Homo sapiens, UniProt Q9BY41).
T1 sequence (Q9BY41 whole entry): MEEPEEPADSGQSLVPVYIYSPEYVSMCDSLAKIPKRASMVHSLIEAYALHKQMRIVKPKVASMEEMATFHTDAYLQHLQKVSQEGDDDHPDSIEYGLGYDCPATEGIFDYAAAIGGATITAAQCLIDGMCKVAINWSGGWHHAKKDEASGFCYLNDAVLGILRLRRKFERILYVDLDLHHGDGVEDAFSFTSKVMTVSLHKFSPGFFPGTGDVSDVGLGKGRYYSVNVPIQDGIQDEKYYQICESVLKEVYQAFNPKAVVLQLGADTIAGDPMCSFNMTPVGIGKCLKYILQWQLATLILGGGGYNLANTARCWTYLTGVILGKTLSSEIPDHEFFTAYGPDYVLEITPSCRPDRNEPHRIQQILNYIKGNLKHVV
In words: Inhibition of HDAC8 (unknown origin) expressed in Escherichia coli using Boc-Lys (acetyl)-AMC as substrate incubated for 5 min prior to substrate addition measured after 30 min by fluorescence assay.

Regarding `COc1cc(C(=O)NN)ccc1COc1ccc(Cl)c(C)c1`, the IC50 (commonly the midpoint of a concentration-inhibition curve) was determined as 1600 nM.
